Experimental data as given in US4442044A, “Process for preparing monoesters and diesters of N-alkyl substituted amino methyl phosphonic acid” (priority 1983, dated 1984).

What was measured:
Assay type in all cases: in vivo
[1] = system: Crabgrass; test: post-emergent herbicidal activity, greenhouse; conditions: Table II, 4 WAT
Outline: (§1)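 Seeds or propagules sown in compacted top soil, grown 2–3 weeks in greenhouse, then sprayed with compound solution/suspension containing ~0.4% emulsifier at tabulated rates. Injury scored visually versus untreated controls at ~2 and 4 weeks after treatment, expressed as a herbicidal activity index.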

[2] = system: Quackgrass; test: post-emergent herbicidal activity, greenhouse; conditions: Table I, 4 WAT, 11.2 kg/h
Outline: as §1

[3] = system: Rice; test: post-emergent herbicidal activity, greenhouse; conditions: Table II, 4 WAT
Outline: as §1

[4] = system: Wheat; test: post-emergent herbicidal activity, greenhouse; conditions: Table II, 4 WAT
Outline: as §1

[5] = system: Panicum Spp; test: post-emergent herbicidal activity, greenhouse; conditions: Table II, 4 WAT
Outline: as §1

[6] = system: Wild Buckwheat; test: post-emergent herbicidal activity, greenhouse; conditions: Table II, 4 WAT
Outline: as §1

[7] = system: Downy Brome; test: post-emergent herbicidal activity, greenhouse; conditions: Table II, 4 WAT
Outline: as §1

[8] = system: Barnyardgrass; test: post-emergent herbicidal activity, greenhouse; conditions: 4 WAT
Outline: as §1

[9] = system: Hemp Sesbania; test: post-emergent herbicidal activity, greenhouse; conditions: Table II, 4 WAT
Outline: as §1

[10] = system: Lambsquarters; test: post-emergent herbicidal activity, greenhouse; conditions: 4 WAT
Outline: as §1

[11] = system: Sorghum; test: post-emergent herbicidal activity, greenhouse; conditions: Table II, 4 WAT
Outline: as §1

[12] = system: Yellow Nutsedge; test: post-emergent herbicidal activity, greenhouse; conditions: Table I, 4 WAT, 5.6 kg/h
Outline: as §1

[13] = system: Sugar Beet; test: post-emergent herbicidal activity, greenhouse; conditions: Table II, 4 WAT
Outline: as §1

[14] = system: Velvetleaf; test: post-emergent herbicidal activity, greenhouse; conditions: 4 WAT
Outline: as §1

[15] = system: Smartweed; test: post-emergent herbicidal activity, greenhouse; conditions: 4 WAT
Outline: as §1

[16] = system: Morningglory; test: post-emergent herbicidal activity, greenhouse; conditions: 4 WAT
Outline: as §1

[17] = system: Soybean; test: post-emergent herbicidal activity, greenhouse; conditions: Table II, 4 WAT
Outline: as §1

[18] = system: Cocklebur; test: post-emergent herbicidal activity, greenhouse; conditions: Table II, 4 WAT
Outline: as §1

[19] = system: Quackgrass; test: pre-emergent herbicidal activity, soil incorporation; conditions: Table III, 2 WAT, 11.2 kg/h
From the text: (§2) A good grade of top soil is placed in aluminum pans and compacted to a depth of 0.95 to 1.27 cm. from the top of each pan. A predetermined number of seeds or vegetative propagules of each of several plant species are placed on top of the soil in each pan and then pressed down. Herbicidal compositions prepared as in the previous example are applied by admixture with or incorporation in the top layer of soil.
(§3) In this method, the soil required to cover the seeds and propagules is weighed and admixed with a herbicidal composition containing a known amount of the active ingredient (compound of this invention). The pans are then filled with the admixture and leveled. Watering is carried out by permitting the soil in the pans to absorb moisture through apertures in the pan bottoms. The seed and propagule containing pans are placed on a wet sand bench and maintained for approximately two weeks under ordinary conditions of sunlight and watering. At the end of this period, the number of emerged plants of each species is noted and compared to an untreated control.
(§4) The pre-emergent herbicidal activity index used below is based upon average percent control of each species as follows: […]

[20] = system: Downy Brome; test: as above; conditions: Table III, 2 WAT, 11.2 kg/h
From the text: as §2, §3, §4

[21] = system: Barnyardgrass; test: as above; conditions: Table III, 2 WAT, 11.2 kg/h
From the text: as §2, §3, §4

[22] = system: Lambsquarters; test: as above; conditions: Table III, 2 WAT, 11.2 kg/h
From the text: as §2, §3, §4

[23] = system: Yellow Nutsedge; test: as above; conditions: Table III, 2 WAT, 11.2 kg/h
From the text: as §2, §3, §4

[24] = system: Canada Thistle; test: as above; conditions: Table III, 2 WAT, 11.2 kg/h
From the text: as §2, §3, §4

[25] = system: Velvetleaf; test: as above; conditions: Table III, 2 WAT, 11.2 kg/h
From the text: as §2, §3, §4

[26] = system: Smartweed; test: as above; conditions: Table III, 2 WAT, 11.2 kg/h
From the text: as §2, §3, §4

[27] = system: Morningglory; test: as above; conditions: Table III, 2 WAT, 11.2 kg/h
From the text: as §2, §3, §4

[28] = system: Cocklebur; test: as above; conditions: Table III, 2 WAT, 11.2 kg/h
From the text: as §2, §3, §4

[29] = system: Johnsongrass; test: as above; conditions: Table III, 2 WAT, 11.2 kg/h
From the text: as §2, §3, §4

## CCOC(=O)CNCP(=O)(O)OC(C)C#N (stereo not drawn) [Example 5, glycine, N-[[(1-cyanoethoxy)hydroxy-phosphinyl]methyl]ethyl ester]
[1]; 0.28 kg/h
  post-emergent herbicidal activity index: 3 (75-99% control)
[1]; 1.12 kg/h
  post-emergent herbicidal activity index: 4 (100% control)
[1]; 5.6 kg/h
  post-emergent herbicidal activity index: 4 (100% control)
[2]
  post-emergent herbicidal activity index: 4 (100% control)
[3]; 0.28 kg/h
  post-emergent herbicidal activity index: 0 (0-24% control)
[3]; 1.12 kg/h
  post-emergent herbicidal activity index: 2 (50-74% control)
[3]; 5.6 kg/h
  post-emergent herbicidal activity index: 4 (100% control)
[4]; 0.28 kg/h
  post-emergent herbicidal activity index: 1 (25-49% control)
[4]; 1.12 kg/h
  post-emergent herbicidal activity index: 3 (75-99% control)
[4]; 5.6 kg/h
  post-emergent herbicidal activity index: 4 (100% control)
[5]; 0.28 kg/h
  post-emergent herbicidal activity index: 3 (75-99% control)
[5]; 1.12 kg/h
  post-emergent herbicidal activity index: 4 (100% control)
[5]; 5.6 kg/h
  post-emergent herbicidal activity index: 4 (100% control)
[6]; 0.28 kg/h
  post-emergent herbicidal activity index: 0 (0-24% control)
[6]; 1.12 kg/h
  post-emergent herbicidal activity index: 2 (50-74% control)
[6]; 5.6 kg/h
  post-emergent herbicidal activity index: 4 (100% control)
[7]; 0.28 kg/h
  post-emergent herbicidal activity index: 1 (25-49% control)
[7]; 1.12 kg/h
  post-emergent herbicidal activity index: 2 (50-74% control)
[7]; 5.6 kg/h
  post-emergent herbicidal activity index: 3 (75-99% control)
[8]; Table I, 5.6 kg/h
  post-emergent herbicidal activity index: 4 (100% control)
[8]; Table I, 11.2 kg/h
  post-emergent herbicidal activity index: 4 (100% control)
[8]; Table II, 0.28 kg/h
  post-emergent herbicidal activity index: 3 (75-99% control)
[8]; Table II, 1.12 kg/h
  post-emergent herbicidal activity index: 3 (75-99% control)
[8]; Table II, 5.6 kg/h
  post-emergent herbicidal activity index: 4 (100% control)
[9]; 0.28 kg/h
  post-emergent herbicidal activity index: 1 (25-49% control)
[9]; 1.12 kg/h
  post-emergent herbicidal activity index: 2 (50-74% control)
[9]; 5.6 kg/h
  post-emergent herbicidal activity index: 3 (75-99% control)
[10]; Table I, 11.2 kg/h
  post-emergent herbicidal activity index: 4 (100% control)
[10]; Table II, 0.28 kg/h
  post-emergent herbicidal activity index: 2 (50-74% control)
[10]; Table II, 1.12 kg/h
  post-emergent herbicidal activity index: 4 (100% control)
[10]; Table II, 5.6 kg/h
  post-emergent herbicidal activity index: 4 (100% control)
[11]; 0.28 kg/h
  post-emergent herbicidal activity index: 3 (75-99% control)
[11]; 1.12 kg/h
  post-emergent herbicidal activity index: 3 (75-99% control)
[11]; 5.6 kg/h
  post-emergent herbicidal activity index: 4 (100% control)
[12]
  post-emergent herbicidal activity index: 3 (75-99% control)
[13]; 0.28 kg/h
  post-emergent herbicidal activity index: 1 (25-49% control)
[13]; 1.12 kg/h
  post-emergent herbicidal activity index: 2 (50-74% control)
[13]; 5.6 kg/h
  post-emergent herbicidal activity index: 4 (100% control)
[14]; Table I, 11.2 kg/h
  post-emergent herbicidal activity index: 4 (100% control)
[14]; Table II, 0.28 kg/h
  post-emergent herbicidal activity index: 1 (25-49% control)
[14]; Table II, 1.12 kg/h
  post-emergent herbicidal activity index: 2 (50-74% control)
[14]; Table II, 5.6 kg/h
  post-emergent herbicidal activity index: 4 (100% control)
[15]; Table I, 5.6 kg/h
  post-emergent herbicidal activity index: 4 (100% control)
[15]; Table I, 11.2 kg/h
  post-emergent herbicidal activity index: 4 (100% control)
[15]; Table II, 0.28 kg/h
  post-emergent herbicidal activity index: 2 (50-74% control)
[15]; Table II, 1.12 kg/h
  post-emergent herbicidal activity index: 4 (100% control)
[15]; Table II, 5.6 kg/h
  post-emergent herbicidal activity index: 4 (100% control)
[16]; Table I, 5.6 kg/h
  post-emergent herbicidal activity index: 3 (75-99% control)
[16]; Table I, 11.2 kg/h
  post-emergent herbicidal activity index: 4 (100% control)
[16]; Table II, 0.28 kg/h
  post-emergent herbicidal activity index: 2 (50-74% control)
[16]; Table II, 1.12 kg/h
  post-emergent herbicidal activity index: 2 (50-74% control)
[16]; Table II, 5.6 kg/h
  post-emergent herbicidal activity index: 4 (100% control)
[17]; 0.28 kg/h
  post-emergent herbicidal activity index: 1 (25-49% control)
[17]; 1.12 kg/h
  post-emergent herbicidal activity index: 2 (50-74% control)
[17]; 5.6 kg/h
  post-emergent herbicidal activity index: 4 (100% control)
[18]; 0.28 kg/h
  post-emergent herbicidal activity index: 2 (50-74% control)
[18]; 1.12 kg/h
  post-emergent herbicidal activity index: 2 (50-74% control)
[18]; 5.6 kg/h
  post-emergent herbicidal activity index: 4 (100% control)
[19]
  pre-emergent herbicidal activity index: 2 (50-74% control)
[20]
  pre-emergent herbicidal activity index: 0 (1-24% control)
[21]
  pre-emergent herbicidal activity index: 0 (1-24% control)
[22]
  pre-emergent herbicidal activity index: 3 (75-100% control)
[23]
  pre-emergent herbicidal activity index: 1 (25-49% control)
[24]
  pre-emergent herbicidal activity index: 3 (75-100% control)
[25]
  pre-emergent herbicidal activity index: 0 (1-24% control)
[26]
  pre-emergent herbicidal activity index: 0 (1-24% control)
[27]
  pre-emergent herbicidal activity index: 0 (1-24% control)
[28]
  pre-emergent herbicidal activity index: 0 (1-24% control)
[29]
  pre-emergent herbicidal activity index: 0 (1-24% control)
